For experiment [1], the system named is KU-19-19: Bladder carcinoma. As to the kind of experiment: Cell based assay, cytotoxicity in KU19-19 cells. The conditions noted are these: Homo sapiens, 72 hours. Here is the method:
Commercially available bladder cancer, prostate cancer, lung cancer, breast cancer, blood cancer, pancreatic cancer, colorectal cancer, brain cancer, neuroblastoma, melanoma, liver cancer, cervical carcinoma, ovarian cancer, renal cancer, and papilloma cell lines were each treated with trypsin-EDTA and cultured, followed by being seeded in each well of a 96 well plate. After 24 hours of treatment at constant temperature, the respective cells were treated with the candidate compound so that a final concentration became 0 to 2 μM. The treated cells were additionally cultured for 72 hours, and cell viability was measured by using an ATP detection method (CellTiter-Glo® Luminescent Cell Viability Assay, Promega).

For experiment [2], the system named is human lung cancer cell line (NCI-H1299). Nature of the experiment: Tumor growth inhibition in animal model using NCI-H1299. The class given is in vivo. The conditions noted are these: intraperitoneally administered three times a week, NCI-H1299 animal model (FIG. 1).

This note sets out measurements from patent publication US11464770B2, “Anticancer pharmaceutical composition” (NATIONAL CANCER CENTER, priority 2016, dated 2022).

The structures appear in SMILES notation.

In general, IC50 refers to the concentration that inhibits the measured activity by half. Low values mean greater potency, high ones weaker potency. In turn, `CC(=O)c1c([S+]([O-])Cc2ccc(SC(F)(F)F)cc2)[nH]c2c(Br)ccc(Cl)c2c1=O` (centres unmarked) [Compound 56, 3-acetyl-8-bromo-5-chloro-2-((4-((trifluoromethyl)thio)benzyl)sulfinyl)quinolin-4(1H)-one] gave an IC50 in experiment [1] of 0.9 µM. Also, the “Effect of inhibiting tumor growth” value in experiment [2] was “effect of inhibiting tumor growth”.
